Patent publication US20110319626A1 (BRADFORD PHARMA LIMITED, priority 2009, published 2011)

Target: T1, HMG-CoA reductase (Homo sapiens, UniProt P04035)
T1 construct: oxidation of NADPH by the catalytic subunit of HMGR in the presence of the substrate HMG-CoA; purchased Sigma-Aldrich CS1090 (kit); H8789 (HMG-CoA reductase)
T1 sequence (P04035 340-888 limits assumed): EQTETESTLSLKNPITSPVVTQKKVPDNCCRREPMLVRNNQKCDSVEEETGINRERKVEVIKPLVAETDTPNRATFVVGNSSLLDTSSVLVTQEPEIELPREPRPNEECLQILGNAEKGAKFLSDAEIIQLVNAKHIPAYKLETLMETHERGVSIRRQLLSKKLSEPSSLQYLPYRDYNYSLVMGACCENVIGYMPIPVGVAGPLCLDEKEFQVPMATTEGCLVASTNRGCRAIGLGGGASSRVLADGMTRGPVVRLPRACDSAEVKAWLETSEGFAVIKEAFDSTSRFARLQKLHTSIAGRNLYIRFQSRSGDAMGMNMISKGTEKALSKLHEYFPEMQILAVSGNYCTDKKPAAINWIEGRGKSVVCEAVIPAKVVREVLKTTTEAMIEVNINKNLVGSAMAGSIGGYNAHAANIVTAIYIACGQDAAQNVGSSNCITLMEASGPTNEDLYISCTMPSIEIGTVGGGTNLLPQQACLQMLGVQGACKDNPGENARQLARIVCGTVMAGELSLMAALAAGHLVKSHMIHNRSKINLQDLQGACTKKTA
Experiment: HMG-CoA Reductase assay kit (spectrophotometric NADPH absorbance at 340 nm)
Type: biochemical
Details: NADPH and HMG-CoA both 200 μM, inhibitor concentrations varied from 0 nM to 50 nM, 37° C.
Experimental: All assays were carried out in a reaction buffer containing […] KxPO4 at pH 7.2, 1 mM EDTA, 500 mM KCl and 1 mg/ml BSA. The concentrations of NADPH and HMG-CoA were both 200 μM. […] Absorbance readings were then taken every 20 seconds for 600 seconds. […] After these were identified, assays were carried out varying their concentrations from 0 nM to 50 nM allowing IC50 values to be calculated.
This is illustrated in the following reaction scheme:
HMG-CoA+2NADPH+2H^+→mevalonate+2NADP^++CoA-SH
Add a buffer to all samples. • b. […] Add the reconstituted NADPH to all samples. • d. Add Substrate Solution (HMG-CoA) to all samples. • e. […] Mix the samples thoroughly.
3. The kinetics programme was started immediately.

| IC50 | Structure (SMILES) |
| --- | --- |
| < 1 nM | CCCOC1C[C@H](O)C[C@@H](CCn2c(-c3ccc(F)cc3)c(-c3ccccc3)c(C(=O)Nc3ccccc3)c2C(C)C)O1 (some centres unmarked) |
| < 1 nM | CC(C)c1c(C(=O)Nc2ccccc2)c(-c2ccccc2)c(-c2ccc(F)cc2)n1CC[C@@H]1C[C@@H](O)CC(OC2CCCCC2)O1 (some centres unmarked) |
| 3 nM | CC(C)c1c(C(=O)Nc2ccccc2)c(-c2ccccc2)c(-c2ccc(F)cc2)n1CC[C@@H]1C[C@@H](OCc2ccccc2)CC(OC(C)(C)C)O1 (some centres unmarked) |
| 1 nM | C=CCOC1C[C@H](OCc2ccccc2)C[C@@H](CCn2c(-c3ccc(F)cc3)c(-c3ccccc3)c(C(=O)Nc3ccccc3)c2C(C)C)O1 (some centres unmarked) |
| 3 nM | CC(C)c1c(C(=O)Nc2ccccc2)c(-c2ccccc2)c(-c2ccc(F)cc2)n1CC[C@@H]1C[C@@H](O)CC(=O)O1 |
| < 1 nM | COc1ccc(OC2C[C@H](O)C[C@@H](CCn3c(-c4ccc(F)cc4)c(-c4ccccc4)c(C(=O)Nc4ccccc4)c3C(C)C)O2)c(OC)c1 (some centres unmarked) |
| < 1 nM | COC1C[C@H](OC(=O)c2cccnc2)C[C@@H](CCn2c(-c3ccc(F)cc3)c(-c3ccccc3)c(C(=O)Nc3ccccc3)c2C(C)C)O1 (some centres unmarked) |
| 4 nM | CC(C)OC1C[C@H](OCc2ccccc2)C[C@@H](CCn2c(-c3ccc(F)cc3)c(-c3ccccc3)c(C(=O)Nc3ccccc3)c2C(C)C)O1 (some centres unmarked) |
